Experimental data published in patent US20230303572A1, “18-MC SALT FORMS” (Mind Medicine, Inc., priority 2022, published 2023).
Where a name gives a salt, the structure may show the parent alone.

Columns and labels:
[1] = Relative thermodynamic stability of HCl salt forms (desolvation and form conversion data); assay type: physicochemical
Procedure: Starting from HCl salt materials with different forms, a total of 100 polymorph screening experiments was performed using different crystallization methods including salt formation by liquid vapor diffusion/slurry at elevated temperature, evaporation at RT/high temperatures, slurry and reverse anti-solvent addition at different temperatures, slow/crash cooling, polymer induced crystallization and grinding. All the resulting solids were isolated for XRPD test, and new forms were further characterized by TGA, DSC, ^1H NMR and HPLC/ IC.
An additional polymorph screening was performed for 18-MC HCl salt.

[2] = Heating experiments and VT-XRPD (N2 drying, heating, cooling back): form change; assay type: physicochemical; conditions: for form change after N2 drying (VT-XRPD): N2-drying for 20 min at 30° C.; for form conversion, summary statement: after desolvation; for Form after heating: solid form by XRPD after heating, cells marked *, # have footnotes that are not shown
From the text: (§1) For XRPD analysis, a PANalytical Empyrean and X′ Pert3 X-ray powder diffract meter was used.

[3] = Physical form stability on storage at RT, air drying or exposure to ambient conditions (XRPD); assay type: physicochemical
From the text: as §1

[4] = tested on: substance use models (nicotine, alcohol, morphine, cocaine and methamphetamine); conditions: animal studies; dosages as low as 10 mg/kg i.p.; cited from earlier work
[5] = tested on: cocaine-seeking or "craving" behaviors; conditions: animal model; cited from earlier work
[6] = solvates of HCl salt, form after desolvation

Row | Structure (SMILES) | form change after N2 drying (VT-XRPD) [2] | form conversion, summary statement [2] | Form after desolvation [1, 6] | form change after heating (XRPD) ([2]; heating to 150° C.) | further results
1 | COCC[C@H]1CC2CN3CCc4c([nH]c5ccccc45)[C@](C(=O)OC)(C2)[C@H]13 [HCl salt Type M, 18-methoxycoronaridine] | no form change | converted to HCl salt Type A | – | – | Form after desolvation ([1]; RT storage or heat to 100° C. under N2): HCl salt Type A**; form change after heating (XRPD/VT-XRPD) ([2]; heating to 100° C.): peaks of HCl salt Type A were observed; form change after heating (VT-XRPD) ([2]; heating to 180° C. under N2 protection): most diffraction peaks were consistent with HCl salt Type A with extra peak similar to HCl salt Type K; form change after storage (XRPD) ([3]; storage at RT for ~3 days): extra peaks of HCl salt Type A
2 | COCC[C@H]1CC2CN3CCc4c([nH]c5ccccc45)[C@](C(=O)OC)(C2)[C@H]13 [18-MC, 18-methoxycoronaridine] | – | – | – | – | effect on drug self-administration [4]: significantly reduces drug self-administration; effect on cue-induced cocaine-seeking [5]: attenuate effects of the environmental cues
3 | COCC[C@H]1CC2CN3CCc4c([nH]c5ccccc45)[C@](C(=O)OC)(C2)[C@H]13 [HCl salt Type P, 18-methoxycoronaridine] | no form change | converted to HCl salt Type A | HCl salt Type A | converted to HCl salt Type A | form change after heating (XRPD) ([2]; heating to 80° C. and cooling back to RT): no obvious form change; form change after heating (XRPD/VT-XRPD) ([2]; heating to 100° C.): form change to HCl salt Type A; form change after heating (VT-XRPD) ([2]; heating to 210° C. under N2 protection): amorphous sample was observed
4 | COCC[C@H]1CC2CN3CCc4c([nH]c5ccccc45)[C@](C(=O)OC)(C2)[C@H]13 [HCl salt Type B, 18-methoxycoronaridine] | – | – | HCl salt Type A | – | Form after heating [2]: HCl salt Type A
5 | COCC[C@H]1CC2CN3CCc4c([nH]c5ccccc45)[C@](C(=O)OC)(C2)[C@H]13 [HCl salt Type Q, 18-methoxycoronaridine] | no form change | converted to HCl salt Type A | HCl salt Type A+freebase Type A | – | form change after heating (VT-XRPD) ([2]; heating to 100° C., 130° C., 160° C. and cooling back to 30° C. under N2 protection): form change to a mixture of HCl salt Type A and freebase Type A
6 | COCC[C@H]1CC2CN3CCc4c([nH]c5ccccc45)[C@](C(=O)OC)(C2)[C@H]13 [HCl salt Type U, 18-methoxycoronaridine] | – | converted to HCl salt Type A | HCl salt Type A | most diffraction peaks were consistent with HCl salt Type A | form change after heating (XRPD/VT-XRPD) ([2]; heating to 120° C.): an extra peak representative of HCl salt Type A was observed
7 | COCC[C@H]1CC2CN3CCc4c([nH]c5ccccc45)[C@](C(=O)OC)(C2)[C@H]13 [HCl salt Type S, 18-methoxycoronaridine] | – | converted to HCl salt Type A | HCl salt Type A | most diffraction peaks were consistent with HCl salt Type A | change after air drying ([3]; air drying at RT, time not stated): turned to be gel like
8 | COCC[C@H]1CC2CN3CCc4c([nH]c5ccccc45)[C@](C(=O)OC)(C2)[C@H]13 [HCl salt Type C, 18-methoxycoronaridine] | – | – | HCl salt Type A | – | Form after heating [2]: HCl salt Type A
